# Experiments:
# Experiment in all cases: Tumor cell proliferation inhibition (Promega cell viability, 72 h)
# Type in all cases: cell-based
# THP1 = settings: Homo sapiens, THP-1, THP1 cells, read-out: Anti-proliferation IC50
# Protocol: (§1) The cell lines used in the experiment are various tumor cells, including DU4475, Colo205, HepG2, PLC/PRF/5, BT-20, LS174T, NCI-H929, HCT116, SW620, SK-CO-1, SW480, DLD1, HT-29, SW900, SW1417, HuH7, H2009, PANC-1, SW48, Duadi, H358, HCT15, 22Rv1, Hela, RKO, Raji, Jurkat, NCI-H716, MDA-MB-231, NCI-H157 and THP1, and the inhibitory effect of the compound of the present disclosure on the proliferation of these tumor cells is determined, in order to screen out sensitive cell types of the compound of the present disclosure.
# (§2) DU4475, Colo205, HepG2, PLC/PRF/5, BT-20, LS174T, NCI-H929, HCT116, SW620, SK-CO-1, SW480, DLD1, HT-29, SW900, SW1417, HuH7, H2009, PANC-1, SW48, Duadi, H358, HCT15, 22Rv1, Hela, RKO, Raji, Jurkat, NCI-H716, MDA-MB-231, NCI-H157 and THP1 cell lines cultured in each medium were treated during the logarithmic growth phase, and the cells were collected and prepared into a uniform cell suspension of known concentration, and then added to the 96-well cell culture plate to make each well contain 1000 cells. Put it into a 5% CO2 incubator and incubate at 37° C. for 20-24 h. The next day, the fully dissolved 3-fold gradient diluted compound was added to each cell culture well, so that the final maximum concentration in the cell culture well was 20 μM, and the culture was continued for 72 hours. In this test, Promega's cell viability detection test is used for detection. The more the cells proliferate, the stronger the final signal intensity will be. The detection instrument is SpectraMax, full wavelength mode. The wells with only DMSO added were used as positive control wells, and the wells without cells inoculated were used as negative control wells. The IC50 value of each compound for different cell proliferation inhibition was calculated to evaluate the inhibitory effect of the compound on different tumor cells.
# PANC-1 = settings: Homo sapiens, PANC-1 cells, read-out: Anti-proliferation IC50
# Protocol: as §1, §2
# Duadi = Duadi cells, read-out: Anti-proliferation IC50
# Protocol: as §1, §2
# Raji = settings: Homo sapiens, Raji cells, read-out: Anti-proliferation IC50
# Protocol: as §1, §2
# SK-CO-1 = settings: Homo sapiens, SK-CO-1 cells, read-out: Anti-proliferation IC50
# Protocol: as §1, §2
# MDA-MB-231 = settings: Homo sapiens, MDA-MB-231 cells, read-out: Anti-proliferation IC50
# Protocol: as §1, §2
# HCT116 = settings: Homo sapiens, HCT-116, HCT116 cells, read-out: Anti-proliferation IC50
# Protocol: as §1, §2
# HepG2 = settings: Homo sapiens, HepG2 cells, read-out: Anti-proliferation IC50
# Protocol: as §1, §2
# H358 = settings: Homo sapiens, NCI-H358, H358 cells, read-out: Anti-proliferation IC50
# Protocol: as §1, §2
# DLD1 = settings: Homo sapiens, DLD-1, DLD1 cells, read-out: Anti-proliferation IC50
# Protocol: as §1, §2
# Jurkat = settings: Homo sapiens, Jurkat cells, read-out: Anti-proliferation IC50
# Protocol: as §1, §2
# SW620 = settings: Homo sapiens, SW-620, SW620 cells, read-out: Anti-proliferation IC50
# Protocol: as §1, §2
# BT-20 = settings: Homo sapiens, BT-20 cells, read-out: Anti-proliferation IC50
# Protocol: as §1, §2
# HuH7 = settings: Homo sapiens, Huh-7, HuH7 cells, read-out: Anti-proliferation IC50
# Protocol: as §1, §2
# SW1417 = settings: Homo sapiens, SW1417 cells, read-out: Anti-proliferation IC50
# Protocol: as §1, §2
# H2009 = settings: Homo sapiens, NCI-H2009, H2009 cells, read-out: Anti-proliferation IC50
# Protocol: as §1, §2
# HT-29 = settings: Homo sapiens, HT-29 cells, read-out: Anti-proliferation IC50
# Protocol: as §1, §2
# DU4475 = settings: Homo sapiens, DU-4475, DU4475 cells, read-out: Anti-proliferation IC50
# Protocol: as §1, §2
# RKO = settings: Homo sapiens, RKO cells, read-out: Anti-proliferation IC50
# Protocol: as §1, §2
# NCI-H929 = settings: Homo sapiens, NCI-H929 cells, read-out: Anti-proliferation IC50
# Protocol: as §1, §2
IC50 (THP1),IC50 (PANC-1),IC50 (Duadi),IC50 (Raji),IC50 (SK-CO-1),IC50 (MDA-MB-231),IC50 (HCT116),IC50 (HepG2),IC50 (H358),IC50 (DLD1),IC50 (Jurkat),IC50 (SW620),IC50 (BT-20),IC50 (HuH7),IC50 (SW1417),IC50 (H2009),IC50 (HT-29),IC50 (DU4475),IC50 (RKO),IC50 (NCI-H929),SMILES
> 10000 nM,140 nM,> 10000 nM,> 10000 nM,341 nM,> 10000 nM,240 nM,128 nM,> 10000 nM,96.6 nM,> 10000 nM,100 nM,135 nM,106 nM,170 nM,214 nM,131 nM,36.9 nM,> 10000 nM,396 nM,[2H]C([2H])([2H])N1c2nc(NCc3ccc(Oc4cnc(C(F)(F)F)nc4)nc3)nc3c2N(CCC3)C(=O)[C@]1(C)CO [AN10250399]
> 10000 nM,47.5 nM,> 10000 nM,> 10000 nM,285 nM,> 10000 nM,142 nM,11 nM,> 10000 nM,315 nM,> 10000 nM,284 nM,22 nM,61.3 nM,33.4 nM,91.7 nM,352 nM,7.9 nM,> 10000 nM,129 nM,Cc1nc(C(F)(F)F)ncc1Oc1ccc(CNc2nc(C)c3c(n2)N(C)[C@@H](C)C(=O)N3)cn1 [AN10250484]

# Source: US20240085425A1, “BIOMARKER AND APPLICATION THEREOF” (ADLAI NORTYE BIOPHARMA CO., LTD., priority 2022, published 2024)
